Measured values as given in PMC10746543, “Design principles for cyclin K molecular glue degraders” (Nature Chemical Biology, 2023).
Several values for one entry are separate records, joined by “and”; a condition that tells them apart may be missing. Equal values may be shown once. Read-outs that look alike come from different tables or passages of the source.

Tests used:
[1] = target: CDK12–cyclin K (Homo sapiens, UniProt Q9NYV4); experiment: Lanthascreen kinase binding assay, CDK12; conditions: for Lanthascreen raw signal, sheet CDK12: duplicates
CDK12–cyclin K, sequence (Q9NYV4 713-1052): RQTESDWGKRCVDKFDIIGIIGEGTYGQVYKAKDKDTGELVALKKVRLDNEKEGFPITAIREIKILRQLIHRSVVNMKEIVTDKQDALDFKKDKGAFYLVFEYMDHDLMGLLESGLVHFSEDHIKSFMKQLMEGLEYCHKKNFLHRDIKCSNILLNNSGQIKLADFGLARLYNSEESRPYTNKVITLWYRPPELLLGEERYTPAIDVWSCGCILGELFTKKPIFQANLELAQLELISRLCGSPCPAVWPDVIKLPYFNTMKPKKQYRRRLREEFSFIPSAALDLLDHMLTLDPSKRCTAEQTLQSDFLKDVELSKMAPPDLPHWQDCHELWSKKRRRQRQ
CDK12–cyclin K, sequence (O75909 1-267 partner limits assumed): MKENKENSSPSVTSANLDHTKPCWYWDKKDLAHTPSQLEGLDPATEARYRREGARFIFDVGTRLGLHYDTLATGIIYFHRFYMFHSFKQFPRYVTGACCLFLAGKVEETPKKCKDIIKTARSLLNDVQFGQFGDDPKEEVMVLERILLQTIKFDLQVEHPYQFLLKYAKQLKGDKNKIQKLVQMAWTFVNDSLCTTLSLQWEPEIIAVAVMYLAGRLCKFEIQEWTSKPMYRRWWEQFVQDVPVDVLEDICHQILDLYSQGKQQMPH
Protocol: Lanthascreen experiments were performed using commercially available reagents (Thermo Fisher) and according to the manufacturer’s instructions.

[2] = target: T1, CDK12–cyclin K and DDB1 (Homo sapiens, UniProt Q16531+Q9NYV4, K965R); experiment: TR-FRET ternary complex formation assay (compound titration); assay type: binding
T1 construct: His6–CDK12 (a.a. 713–1,052); full-length or beta-propeller B domain deletion (ΔBPB: a.a. 396–705 deleted) constructs of His6–DDB1ΔBPB, StrepII–Avi–DDB1, or His6–Spy–DDB1; made in house; host or cells: Trichoplusia ni High Five insect cells (baculovirus)
T1 sequence (Q9NYV4 713-1052 K965R): as the sequence (Q9NYV4 713-1052) above, with K253R counted along it
T1 sequence (O75909 1-267 partner): as the sequence (O75909 1-267 partner limits assumed) above
T1 sequence (Q16531 whole entry): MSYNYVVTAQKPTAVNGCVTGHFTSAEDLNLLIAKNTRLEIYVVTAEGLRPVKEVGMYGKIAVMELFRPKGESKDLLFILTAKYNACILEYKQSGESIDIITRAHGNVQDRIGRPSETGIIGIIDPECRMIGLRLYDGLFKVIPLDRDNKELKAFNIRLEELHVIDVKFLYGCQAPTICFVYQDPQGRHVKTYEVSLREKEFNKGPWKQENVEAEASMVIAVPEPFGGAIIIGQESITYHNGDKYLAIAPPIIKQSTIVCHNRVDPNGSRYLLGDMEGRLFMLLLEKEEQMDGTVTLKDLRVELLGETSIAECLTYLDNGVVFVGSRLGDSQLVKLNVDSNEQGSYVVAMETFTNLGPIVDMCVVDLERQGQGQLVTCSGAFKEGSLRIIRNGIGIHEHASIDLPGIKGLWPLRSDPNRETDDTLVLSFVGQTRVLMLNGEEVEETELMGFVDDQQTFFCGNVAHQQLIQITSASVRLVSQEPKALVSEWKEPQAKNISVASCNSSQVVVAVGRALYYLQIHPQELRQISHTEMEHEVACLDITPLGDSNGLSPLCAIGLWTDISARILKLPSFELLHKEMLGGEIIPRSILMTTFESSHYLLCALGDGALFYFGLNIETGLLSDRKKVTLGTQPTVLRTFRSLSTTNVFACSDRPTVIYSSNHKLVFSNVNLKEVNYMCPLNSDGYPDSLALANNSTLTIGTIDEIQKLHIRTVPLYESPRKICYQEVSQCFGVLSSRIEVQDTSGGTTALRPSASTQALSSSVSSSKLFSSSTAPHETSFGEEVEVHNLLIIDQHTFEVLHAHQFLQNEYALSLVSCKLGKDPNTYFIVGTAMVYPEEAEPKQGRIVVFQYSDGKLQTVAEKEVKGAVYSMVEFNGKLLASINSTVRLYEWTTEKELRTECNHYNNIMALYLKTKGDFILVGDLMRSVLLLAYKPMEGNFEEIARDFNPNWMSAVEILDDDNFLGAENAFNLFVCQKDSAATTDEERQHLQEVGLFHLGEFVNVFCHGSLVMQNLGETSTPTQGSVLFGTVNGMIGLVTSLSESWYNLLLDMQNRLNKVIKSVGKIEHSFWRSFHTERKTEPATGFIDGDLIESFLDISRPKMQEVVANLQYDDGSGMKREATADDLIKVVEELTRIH
Method in brief: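 Delayed (70 μs) time-resolved read; FRET computed as 520 nm over 490 nm emission.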

[3] = target: T2, CDK13 (Homo sapiens, UniProt Q14004+Q16531); experiment: Label-free quantitative mass spectrometry in MDA-MB-231 cells, CDK13; assay type: cell-based; conditions: for CDK13 peptide count: label-free quantitative MS, replicate values; for CDK13 peptide count (DMSO-normalised): normalised to DMSO = 1, replicate values
T2 construct: endogenous in cells; host or cells: MDA-MB-231
T2 sequence (Q14004 whole entry): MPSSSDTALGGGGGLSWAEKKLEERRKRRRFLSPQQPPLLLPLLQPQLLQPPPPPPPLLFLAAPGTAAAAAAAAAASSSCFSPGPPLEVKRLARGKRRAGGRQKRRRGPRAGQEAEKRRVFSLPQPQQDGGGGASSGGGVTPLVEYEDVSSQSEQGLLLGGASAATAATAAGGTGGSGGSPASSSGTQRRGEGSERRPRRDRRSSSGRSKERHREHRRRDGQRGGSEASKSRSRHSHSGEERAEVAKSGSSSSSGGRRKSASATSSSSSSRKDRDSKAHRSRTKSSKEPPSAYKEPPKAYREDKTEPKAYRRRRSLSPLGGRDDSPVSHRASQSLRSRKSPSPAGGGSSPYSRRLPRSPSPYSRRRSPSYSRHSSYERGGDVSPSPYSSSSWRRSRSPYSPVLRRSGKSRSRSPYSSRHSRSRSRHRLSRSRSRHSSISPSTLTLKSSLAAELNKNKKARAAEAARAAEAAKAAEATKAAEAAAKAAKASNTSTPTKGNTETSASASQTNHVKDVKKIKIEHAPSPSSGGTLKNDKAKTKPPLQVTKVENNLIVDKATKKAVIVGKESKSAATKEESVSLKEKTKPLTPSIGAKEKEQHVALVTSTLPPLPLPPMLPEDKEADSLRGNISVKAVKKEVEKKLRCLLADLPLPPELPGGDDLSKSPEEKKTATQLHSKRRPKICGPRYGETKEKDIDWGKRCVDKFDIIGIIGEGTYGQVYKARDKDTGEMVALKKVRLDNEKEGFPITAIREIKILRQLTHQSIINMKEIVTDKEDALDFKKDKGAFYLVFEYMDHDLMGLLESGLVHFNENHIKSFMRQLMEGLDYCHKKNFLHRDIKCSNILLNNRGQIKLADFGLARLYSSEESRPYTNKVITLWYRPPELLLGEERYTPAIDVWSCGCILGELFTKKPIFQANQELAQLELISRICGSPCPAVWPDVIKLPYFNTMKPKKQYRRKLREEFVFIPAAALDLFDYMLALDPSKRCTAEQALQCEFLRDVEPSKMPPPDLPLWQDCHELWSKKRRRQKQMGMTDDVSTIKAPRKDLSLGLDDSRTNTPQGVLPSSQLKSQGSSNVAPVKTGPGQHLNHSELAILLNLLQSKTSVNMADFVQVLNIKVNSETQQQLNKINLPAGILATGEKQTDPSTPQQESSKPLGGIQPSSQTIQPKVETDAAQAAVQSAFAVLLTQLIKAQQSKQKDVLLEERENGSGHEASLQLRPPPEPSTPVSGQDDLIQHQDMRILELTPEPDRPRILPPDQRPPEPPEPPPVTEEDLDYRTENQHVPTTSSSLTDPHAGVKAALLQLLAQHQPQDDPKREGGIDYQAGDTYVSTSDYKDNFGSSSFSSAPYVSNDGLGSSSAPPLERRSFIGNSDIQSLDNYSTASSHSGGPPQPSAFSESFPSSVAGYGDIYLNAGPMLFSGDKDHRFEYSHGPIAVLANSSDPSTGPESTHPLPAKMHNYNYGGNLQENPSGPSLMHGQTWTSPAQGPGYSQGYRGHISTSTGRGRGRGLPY
T2 sequence (O75909 whole entry partner): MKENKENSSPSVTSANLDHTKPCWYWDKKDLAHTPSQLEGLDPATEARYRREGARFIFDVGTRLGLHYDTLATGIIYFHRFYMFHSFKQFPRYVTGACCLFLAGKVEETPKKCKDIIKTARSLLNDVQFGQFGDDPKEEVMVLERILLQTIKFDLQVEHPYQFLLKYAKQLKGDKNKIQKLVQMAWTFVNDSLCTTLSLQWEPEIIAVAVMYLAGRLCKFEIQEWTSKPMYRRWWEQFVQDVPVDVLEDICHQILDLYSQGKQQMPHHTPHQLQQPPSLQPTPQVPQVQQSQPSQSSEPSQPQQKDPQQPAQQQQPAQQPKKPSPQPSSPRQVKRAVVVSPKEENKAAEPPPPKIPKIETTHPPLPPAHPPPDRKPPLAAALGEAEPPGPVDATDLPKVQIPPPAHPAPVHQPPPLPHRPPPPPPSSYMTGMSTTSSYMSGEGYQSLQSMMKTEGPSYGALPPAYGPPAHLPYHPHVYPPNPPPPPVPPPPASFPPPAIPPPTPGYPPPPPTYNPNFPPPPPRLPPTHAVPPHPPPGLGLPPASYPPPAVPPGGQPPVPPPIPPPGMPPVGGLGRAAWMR
T2 sequence (Q16531 2-1140 limits assumed): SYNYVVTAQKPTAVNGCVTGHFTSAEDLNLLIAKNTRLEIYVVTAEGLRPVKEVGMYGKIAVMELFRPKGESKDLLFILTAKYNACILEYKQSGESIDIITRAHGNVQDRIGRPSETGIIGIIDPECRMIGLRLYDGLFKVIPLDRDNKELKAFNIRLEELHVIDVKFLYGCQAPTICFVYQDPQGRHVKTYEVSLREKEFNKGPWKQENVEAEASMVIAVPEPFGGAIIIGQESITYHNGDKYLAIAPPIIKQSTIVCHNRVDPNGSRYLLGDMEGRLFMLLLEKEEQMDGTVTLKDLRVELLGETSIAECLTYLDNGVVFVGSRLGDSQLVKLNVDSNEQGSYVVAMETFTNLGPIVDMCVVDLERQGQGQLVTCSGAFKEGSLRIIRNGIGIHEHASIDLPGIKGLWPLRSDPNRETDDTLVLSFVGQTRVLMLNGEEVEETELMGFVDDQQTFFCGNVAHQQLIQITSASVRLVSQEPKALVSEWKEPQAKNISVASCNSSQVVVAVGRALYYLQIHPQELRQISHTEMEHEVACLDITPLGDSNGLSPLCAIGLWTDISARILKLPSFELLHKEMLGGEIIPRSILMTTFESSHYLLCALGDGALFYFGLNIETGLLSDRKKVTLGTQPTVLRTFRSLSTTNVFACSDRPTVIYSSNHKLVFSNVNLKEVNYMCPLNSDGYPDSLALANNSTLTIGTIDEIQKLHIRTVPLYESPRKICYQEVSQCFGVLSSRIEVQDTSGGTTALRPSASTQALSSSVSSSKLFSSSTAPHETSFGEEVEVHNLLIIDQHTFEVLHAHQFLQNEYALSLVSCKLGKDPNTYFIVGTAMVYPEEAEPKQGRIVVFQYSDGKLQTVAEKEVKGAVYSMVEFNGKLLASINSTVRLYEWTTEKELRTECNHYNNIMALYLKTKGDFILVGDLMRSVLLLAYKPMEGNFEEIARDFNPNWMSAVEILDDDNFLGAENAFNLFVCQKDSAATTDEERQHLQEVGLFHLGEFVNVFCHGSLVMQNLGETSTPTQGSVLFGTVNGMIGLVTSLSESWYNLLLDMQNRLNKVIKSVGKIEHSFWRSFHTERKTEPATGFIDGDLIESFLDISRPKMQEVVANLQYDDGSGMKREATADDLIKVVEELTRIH
Method in brief: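 MDA-MB-231 cells treated 5 h with 1 µM cyclin K degrader or DMSO. Lysates digested with LysC and trypsin, then analysed by label-free diaPASEF LC-MS on a TimsTOF Pro2 with directDIA search and MS1 precursor quantification. Protein abundances scaled and analysed with limma.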

[4] = in vitro complex formation, 50 nM CDK12–cyclin K, 100 nM DDB1, text and figures, read-out: TR-FRET EC50
[5] = sheet MOESM7, read-out: log TR-FRET EC50 (converted)
[6] = source data sheet correlations, read-out: TR-FRET EC50

Compound: C[C@H](C(=O)Nc1nc2ccccc2[nH]1)N1Cc2ccccc2C1=O [compound 919278]
- IC50 ([1]; Lanthascreen, average, Extended Data Fig. 8, read-out: CDK12 IC50): 1340 nM
- Lanthascreen raw signal, sheet CDK12 ([1]; compound 0.038147 nM, series r13): 0.01141 and 0.01078
- Lanthascreen raw signal, sheet CDK12 ([1]; compound 0.038147 nM, series r49): 0.007974 and 0.007894
- Lanthascreen raw signal, sheet CDK12 ([1]; compound 0.152588 nM, series r13): 0.01172 and 0.01127
- Lanthascreen raw signal, sheet CDK12 ([1]; compound 0.152588 nM, series r49): 0.009529 and 0.009772
- Lanthascreen raw signal, sheet CDK12 ([1]; compound 0.610352 nM, series r13): 0.01156 and 0.01218
- Lanthascreen raw signal, sheet CDK12 ([1]; compound 0.610352 nM, series r49): 0.00969 and 0.009867
- Lanthascreen raw signal, sheet CDK12 ([1]; compound 9.76563 nM, series r13): 0.01168 and 0.01068
- Lanthascreen raw signal, sheet CDK12 ([1]; compound 9.76563 nM, series r49): 0.008416 and 0.00874
- Lanthascreen raw signal, sheet CDK12 ([1]; compound 39.0625 nM, series r13): 0.01187 and 0.01164
- Lanthascreen raw signal, sheet CDK12 ([1]; compound 39.0625 nM, series r49): 0.009257 and 0.00975
- Lanthascreen raw signal, sheet CDK12 ([1]; compound 156.25 nM, series r13): 0.01128 and 0.01164
- Lanthascreen raw signal, sheet CDK12 ([1]; compound 156.25 nM, series r49): 0.009429 and 0.008734
- Lanthascreen raw signal, sheet CDK12 ([1]; compound 625 nM, series r13): 0.01093 and 0.01047
- Lanthascreen raw signal, sheet CDK12 ([1]; compound 625 nM, series r49): 0.007601 and 0.007861
- Lanthascreen raw signal, sheet CDK12 ([1]; compound 2500 nM, series r13): 0.009465 and 0.008988
- Lanthascreen raw signal, sheet CDK12 ([1]; compound 2500 nM, series r49): 0.006693 and 0.006957
- Lanthascreen raw signal, sheet CDK12 ([1]; compound 10000 nM, series r13): 0.008087 and 0.007713
- Lanthascreen raw signal, sheet CDK12 ([1]; compound 10000 nM, series r49): 0.006488 and 0.006166
- TR-FRET signal ([2]; compound concentration 0.468 nM): 0.3356 and 0.3148
- TR-FRET signal ([2]; compound concentration 2.16 nM): 0.4152 and 0.4184
- TR-FRET signal ([2]; compound concentration 3.6 nM): 0.5887 and 0.6016
- TR-FRET signal ([2]; compound concentration 7.92001 nM): 0.8771 and 0.9002
- TR-FRET signal ([2]; compound concentration 15.84 nM): 1.301 and 1.376
- TR-FRET signal ([2]; compound concentration 30.96 nM): 2 and 2.052
- TR-FRET signal ([2]; compound concentration 62.6401 nM): 2.747 and 2.77
- TR-FRET signal ([2]; compound concentration 125.28 nM): 3.33 and 3.298
- TR-FRET signal ([2]; compound concentration 244.8 nM): 3.75 and 3.634
- TR-FRET signal ([2]; compound concentration 993.601 nM): 4.177 and 4.02
- TR-FRET signal ([2]; compound concentration 2001.6 nM): 4.179 and 4.0366
- EC50 [2, 4]: 0.038 ± 0.001 µM
- EC50 [2, 5]: 0.0378 µM
- EC50 [2, 6]: 0.0378 µM
- CDK13 peptide count [3]: 457.834 and 405.628
- CDK13 peptide count (DMSO-normalised) [3]: 0.6811 and 0.6233

Compound: CC[C@H](CO)Nc1nc(NCc2nc3cc(Cl)c(Cl)cc3[nH]2)c2ncn(C(C)C)c2n1 [DS17]
- CDK inhibitory selectivity, result in words ([1]; Lanthascreen across CDK2/9/12): CDK12 selective
- IC50 ([1]; Supplementary Table 2, read-out: Lanthascreen IC50 [nM] CDK12): 117 nM
- Lanthascreen raw signal, sheet CDK12 ([1]; compound 0.038147 nM, series r37): 0.01439 and 0.01466
- Lanthascreen raw signal, sheet CDK12 ([1]; compound 0.152588 nM, series r37): 0.01355 and 0.01465
- Lanthascreen raw signal, sheet CDK12 ([1]; compound 0.610352 nM, series r37): 0.01399 and 0.01278
- Lanthascreen raw signal, sheet CDK12 ([1]; compound 9.76563 nM, series r37): 0.01302 and 0.01264
- Lanthascreen raw signal, sheet CDK12 ([1]; compound 39.0625 nM, series r37): 0.01048 and 0.01099
- Lanthascreen raw signal, sheet CDK12 ([1]; compound 156.25 nM, series r37): 0.008496 and 0.009307
- Lanthascreen raw signal, sheet CDK12 ([1]; compound 625 nM, series r37): 0.00749 and 0.007398
- Lanthascreen raw signal, sheet CDK12 ([1]; compound 2500 nM, series r37): 0.006169 and 0.00594
- Lanthascreen raw signal, sheet CDK12 ([1]; compound 10000 nM, series r37): 0.005029 and 0.005256
- TR-FRET signal at compound concentration 0.468 nM ([2]; compound concentration 0.468 nM, raw replicate titration data): 0.2691 and 0.2681 and 0.2563 and 0.2452
- TR-FRET signal at compound concentration 2.16 nM ([2]; compound concentration 2.16 nM, raw replicate titration data): 0.3644 and 0.3794 and 0.3582 and 0.3855
- TR-FRET signal at compound concentration 3.6 nM ([2]; compound concentration 3.6 nM, raw replicate titration data): 0.5749 and 0.6382 and 0.6238 and 0.6481
- TR-FRET signal at compound concentration 7.92001 nM ([2]; compound concentration 7.92001 nM, raw replicate titration data): 1.103 and 1.253 and 1.275 and 1.336
- TR-FRET signal at compound concentration 15.84 nM ([2]; compound concentration 15.84 nM, raw replicate titration data): 2.342 and 2.592 and 2.673 and 2.949
- TR-FRET signal at compound concentration 30.96 nM ([2]; compound concentration 30.96 nM, raw replicate titration data): 3.985 and 4.064 and 4.264 and 4.269
- TR-FRET signal at compound concentration 62.6401 nM ([2]; compound concentration 62.6401 nM, raw replicate titration data): 4.135 and 4.141 and 4.254 and 4.343
- TR-FRET signal at compound concentration 125.28 nM ([2]; compound concentration 125.28 nM, raw replicate titration data): 4.238 and 4.311 and 4.291 and 4.347
- TR-FRET signal at compound concentration 244.8 nM ([2]; compound concentration 244.8 nM, raw replicate titration data): 4.1978 and 4.255 and 4.25 and 4.345
- TR-FRET signal at compound concentration 993.601 nM ([2]; compound concentration 993.601 nM, raw replicate titration data): 4.229 and 4.264 and 4.321 and 4.299
- TR-FRET signal at compound concentration 2001.6 nM ([2]; compound concentration 2001.6 nM, raw replicate titration data): 4.223 and 4.116 and 4.3288 and 4.427
- EC50 [2, 4]: 0.013 ± 0.0003 µM
- EC50 [2, 5]: 0.0132 µM
- EC50 [2, 6]: 0.0132 µM
- CDK13 peptide count [3]: 156.014 and 130.628
- CDK13 peptide count (DMSO-normalised) [3]: 0.2321 and 0.2007
